Converted amounts (≈) assume the structure as drawn. Read-outs that look alike come from different tables or passages of the source.
Key:
HIV-1 protease = target: T1, HIV-1 protease (Human immunodeficiency virus type 1 group M subtype B, UniProt P04585); experiment: biochemical; type: biochemical
T1 construct: purified HIV-1 protease
Experimental: 1. Proteolytic activity of purified HIV-1 protease was routinely measured using the chromogenic assay developed by Richards et al. (J. Biol. Chem. 265: 7733 (1990)). Synthetic peptide His-Lys-Ala-Arg-Val-Leu-Phe (pNO2)-Glu-Ala-Nle-Ser-NH2 (American Peptide Company) was used as the substrate.
2. The assay was carried out in 0.5M NaCl, 50 mM MES pH 5.6, 2% DMSO (dimethylsulfoxide) at 37° C. Cleavage of the scissile bond between leucine and paranitro-phenylalanine (Phe(pNO2)) was assayed by spectrophotometric monitoring of the decrease in absorbance at 305 nm. Initial velocity was determined as the rate of decline of absorbance during the first 100 seconds of reaction.
3. […] Between 15-25 concentrations of inhibitor were added and velocity of reaction was measured at each of the concentrations, as described above.
4. Inhibition constants were calculated using the method of Jackson et al. (Adv. in Enzyme Regulation 22: 187 (1984)).

HIV-1 (CEM cells) = experiment: Anti-HIV MTT assay, inhibition of HIV-induced cell killing, CEM cells; type: cell-based, HIV-1 isolates IIIB and/or RF; conditions: Human immunodeficiency virus 1, CCRF-CEM, 144 h, CEM cell line (first position), 6 days, 37° C., read-out: Viral CEM
From the text: (§1) SRI has an established program for the primary antiviral analysis of compounds in microtiter assays which measure the ability of a selected compound to inhibit HIV-induced cell killing. This assay involves the conversion of the tetrazolium dye MTT to a colored formazan product by mitochondrial enzymes in metabolically active cells. This assay system is presently used at SRI to screen over 30,000 compounds per year. Briefly, the assay involves the infection of CEM or MT2 cells in round bottom 96-well plates. The compound of interest is added just prior to infection. Following 6 days of incubation at 37° C. the plates are stained with MTT. The results of the assay are quantitated spectrophotometrically on a Molecular Devices Vmax plate reader. The data is analyzed by linear regression utilizing an in-house software program to calculate antiviral activity. (IC25, IC50, IC95) and toxicity (TC25, TC50, TC95) as well as other values.
(§2) Primary antiviral assays are routinely performed in CEM or MT-2 cells.
(§3) Drugs will be solubilized in the appropriate vehicle such as distilled water or DMSO if necessary. Latex gloves, lab coats and masks are used during all phases of the handling process to prevent exposure to potentially harmful agents. The drug is prepared at the appropriate concentration and stored at -20° C. until used by the screening laboratory. The first dilution of each compound is made in a dilution tube with medium to yield a concentration two-fold that of the highest test concentration. Sterile titer tubes are then used to make serial one half-log dilutions of each compound. Following drug dilution, the diluted compound is added to the appropriate well of a 96-well microtiter plate. Up to 12 dilutions can be assayed conveniently in triplicate on a single plate with all appropriate controls including cell control, virus control, toxicity control, drug color control, medium control and plastic (background) control. When testing includes only six dilutions, two drugs can be assayed on a single microtiter plate. The drugs are added to the plate in a final volume of 100 microliters.
(§4) During the time the drug dilutions are prepared, cells are washed and counted. Viability is monitored by trypan blue dye exclusion and assays are not performed if the viability falls below 90%. Cells are maintained in an exponential growth phase and are split 1:2 on the day prior to assay to assure exponential growth rate.
(§5) For the primary screen, the cell lines utilized are CEM and MT-2. Unless otherwise indicated, the medium used is RPMI 1640 with 10% heat-inactivated fetal calf serum (FBS), glutamine and antibiotics.
(§6) Cells are propagated at 37° C. in an atmosphere of 5% CO2 in air. The virus employed for this work is HIV-1 isolates IIIB and/or RF, which are prepared by an acute infection process.
(§7) Briefly, virus-infected cells are pelleted on a daily basis beginning at three days post-infection until the virus has killed all of the cells in the culture. Reverse transcriptase activity and p24 ELISA are used to identify pools with the greatest amount of virus.
(§8) These 24-hour harvests are pooled, filtered and frozen at -90° C. Prior to use in the assay, the infectious pool of virus is titered on all available cell lines in order to determine the amount of virus required in the antiviral assay.
(§9) In general, pools produced by the acute infection method require the addition of one microliter of infectious virus per well resulting in the screening of drugs at a multiplicity of infection of 0.01. In this manner enough virus is prepared and frozen to complete over one thousand microtiter plates, allowing the testing of up to two thousand compounds from a single stock of infectious virus. The use of a single stock of virus for a long period of testing has very favorable effects on the repeatability of the assay systems.
(§10) Virus infection of the CEM and MT-2 cells for the antiviral assay is carried out in a bulk infection process. […]

HIV-1 (MT-2 cells) = experiment: Anti-HIV MTT assay, inhibition of HIV-induced cell killing, MT-2 cells; type: cell-based, HIV-1 isolates IIIB and/or RF; conditions: Human immunodeficiency virus 1, MT2, 144 h; MT-2 cells (second position), 6 days, 37° C., MTT; read-out: Viral MT-2
From the text: as §1, §2, §3, §4, §5, §6, §7, §8, §9, §10

[1] = 0.5M NaCl, 50 mM MES pH 5.6, 2% DMSO, 37° C., 200 μM substrate

Compound	IC50 (HIV-1 protease) [nM]	Ki (HIV-1 protease) [nM]	IC50 (HIV-1 (CEM cells)) [µg/mL]	IC50 (HIV-1 (MT-2 cells)) [µg/mL]	IC50 (HIV-1 protease; [1]) [nM]	Ki (HIV-1 protease; [1]) [nM]	Km (HIV-1 protease; substrate, standard conditions, read-out: Michaelis constant (Km)) [µM]
CC(C)(C)N(CCO)C(=O)c1ccccc1CCC(O)Cc1ccccc1C(=O)N(CCO)C(C)(C)C (centres unmarked) [Example 1]	1030	835	18.6 (≈ 36.3 µM)	23 (≈ 44.9 µM)			
CC(C)(C)N(CCO)C(=O)c1ccccc1CCC(O)Cc1ccccc1C(=O)N(CCO)C1(C)CCCC1 (centres unmarked) [Example 5]			17.4 (≈ 32.3 µM)	32 (≈ 59.4 µM)	950	840	
CC(C)(C)NC(=O)c1c(CCC(O)Cc2ccccc2C(=O)N(Cc2ncc[nH]2)C(C)(C)C)ccc2ccccc12 (centres unmarked) [Example 12]			29.5 (≈ 53.2 µM)		820	790	
CCC1(N(CCO)C(=O)c2ccccc2CCC(O)Cc2ccc(C)cc2C(=O)N(CCO)C(C)(C)c2ccccc2)CCCC1 (centres unmarked) [Example 18]			0.49 (≈ 0.779 µM)	0.53 (≈ 0.843 µM)			
Cc1ccc(CCC(O)Cc2ccccc2C(=O)N(CCO)C(C)(C)c2ccccc2)c(C(=O)N(CCO)C(C)(C)C)c1 (centres unmarked) [Example 62]			2.86 (≈ 4.86 µM)	4.98 (≈ 8.46 µM)	169	152	
CC(C)(c1ccccc1)N(CCO)C(=O)c1ccccc1CCC(O)Cc1ccccc1C(=O)N(CCO)C(C)(C)c1ccccc1 (centres unmarked) [Example 65]			0.89 (≈ 1.4 µM)	1.76 (≈ 2.76 µM)	82	31	
CC(C)(C)N(CCO)C(=O)c1ccccc1CCC(O)Cc1ccccc1C(=O)N(CCO)C(C)(C)c1ccc2ccccc2c1 (centres unmarked) [Example 66]			4.53 (≈ 7.25 µM)	12.7 (≈ 20.3 µM)	250	145	
CC(C)(C)N(CCO)C(=O)c1ccccc1CCC(O)Cc1ccccc1C(=O)N(Cc1ncc[nH]1)C(C)(C)c1ccccc1 (centres unmarked) [Example 72]			5.54 (≈ 9.07 µM)	17.9 (≈ 29.3 µM)	326	100	
CC(C)(C)NC(=O)c1cc(Sc2ccccc2)ccc1CCC(O)Cc1ccccc1C(=O)N(CCO)C(C)(C)C (centres unmarked) [Example 73]			> 10	> 10	680	717	
Cc1ccc(CC(O)CCc2ccccc2C(=O)N(CCO)C(C)(C)C)c(C(=O)N(CCO)C(C)(C)c2ccccc2)c1 (centres unmarked) [Example 74]			3.69 (≈ 6.27 µM)	5.54 (≈ 9.41 µM)	180	21	
CC(C)(C)N(CCO)C(=O)c1ccccc1CCC(O)Cc1ccccc1C(=O)N(CCO)C(C)(C)c1ccncc1 (centres unmarked) [Example 77]			7.57 (≈ 13.1 µM)	16.4 (≈ 28.5 µM)	1230	1010	
CC(C)(C)N(CCO)C(=O)c1ccccc1CCC(=O)C(F)(F)c1ccccc1C(=O)N(CCO)C(C)(C)c1ccccc1 [Example 78]			> 10	6.64 (≈ 10.9 µM)	420	320	
Cc1ccc(CC(O)CCc2ccccc2C(=O)N(CCO)C(C)(C)c2ccccc2)c(C(=O)N(CCO)C(C)(C)c2ccccc2)c1 (centres unmarked) [Example 80]			0.53 (≈ 0.814 µM)	0.68 (≈ 1.04 µM)	89	12	
CC(C)(C)N(CCO)C(=O)c1ccccc1CCC(O)Cc1ccccc1C(=O)N(CCO)C12CCCCC1CCC2 (centres unmarked) [Example 81]			4.39 (≈ 7.58 µM)	5.58 (≈ 9.64 µM)	230	64	
CCC1(N(CCO)C(=O)c2ccccc2CCC(O)Cc2ccccc2C(=O)N(CCO)C(C)(C)c2ccccc2)CCCC1 (centres unmarked) [Example 82]			0.75 (≈ 1.22 µM)	0.64 (≈ 1.04 µM)	104	17	
CC(C)(C)N(CCO)C(=O)c1ccccc1CCC(O)Cc1ccccc1C(=O)N(CCOc1ccncc1)C(C)(C)c1ccccc1 (centres unmarked) [Example 83]			> 100	> 100	2500	735	
Cc1ccc(CCC(O)Cc2ccccc2C(=O)N(CCOCc2ccccc2)C(C)(C)c2ccccc2)c(C(=O)N(CCO)C(C)(C)C)c1 (centres unmarked) [Example 84]			> 100	> 100	351	315	
CCc1ccc(CC(O)CCc2ccccc2C(=O)N(CCO)C(C)(C)c2ccccc2)c(C(=O)N(CCO)C(C)(C)c2ccccc2)c1 (centres unmarked) [Example 89]			1 (≈ 1.5 µM)	1.79 (≈ 2.69 µM)	144	17	
Cc1cc(CC(O)CCc2ccccc2C(=O)N(CCO)C(C)(C)C)c(C(=O)N(CCO)C(C)(C)c2ccccc2)cc1C (centres unmarked) [Example 90]					200	176	
CC(C)(C)N(CCO)C(=O)c1ccccc1CCC(O)Cc1ccccc1C(=O)N(CCO)C(C)(C)c1ccccc1 (centres unmarked) [Example 91]			1.95 (≈ 3.39 µM)	5.28 (≈ 9.19 µM)	274	172	
CCCC(CC)(CC)N(CCO)C(=O)c1ccccc1CC(O)CCc1ccccc1C(=O)N(CCO)C(C)(C)C (centres unmarked) [Example 92]			2.12 (≈ 3.73 µM)	5.06 (≈ 8.9 µM)	183	88	
CCC1(N(CCO)C(=O)c2ccccc2CCC(O)Cc2ccccc2C(=O)N(CCO)C2(c3ccccc3)CCCC2)CCCC1 (centres unmarked) [Example 93]			1.35 (≈ 2.11 µM)	1.67 (≈ 2.61 µM)	104	2.3	
CCC1(N(CCO)C(=O)c2ccccc2CCC(O)Cc2ccc(C)cc2C(=O)N(CCO)C2(c3ccccc3)CCCC2)CCCC1 (centres unmarked) [Example 94]			0.52 (≈ 0.794 µM)	1.47 (≈ 2.24 µM)	141	0.55	
CCC1(N(CCO)C(=O)c2ccccc2CCC(O)Cc2ccccc2C(=O)N(CCO)C(CC)(CC)c2ccccc2)CCCC1 (centres unmarked) [Example 95]			0.6 (≈ 0.933 µM)	1.46 (≈ 2.27 µM)	90	1.5	
CCC1(N(CCO)C(=O)c2ccccc2CCC(O)Cc2ccc(C)cc2C(=O)N(CCO)C(C)(C)c2ccc(O)cc2)CCCC1 (centres unmarked) [Example 96]	63	4	0.57 (≈ 0.884 µM)	1.18 (≈ 1.83 µM)			
CCC1(N(CCO)C(=O)c2ccccc2CCC(O)Cc2ccccc2C(=O)N(CCO)C23CCCCC2CCCC3)CCCC1 (centres unmarked) [Example 97]			1.58 (≈ 2.5 µM)	> 10	225	38	
CCC1(N(CCO)C(=O)c2ccccc2CCC(O)Cc2ccc(C)cc2C(=O)N(CCO)C(C)(C)c2ccc(OCc3cccnc3)cc2)CCCC1 (centres unmarked) [Example 98]			0.48 (≈ 0.652 µM)	1.94 (≈ 2.64 µM)	103	2	
CCSc1ccc(CC(O)CCc2ccccc2C(=O)N(CCO)C2(CC)CCCC2)c(C(=O)N(CCO)C(C)(C)c2ccccc2)c1 (centres unmarked) [Example 99]			1.62 (≈ 2.4 µM)	5.75 (≈ 8.52 µM)	196	15	
CCC1(N(CCO)C(=O)c2ccccc2CC[C@@H](O)Cc2ccc(C)cc2C(=O)N(CCO)C(C)(C)c2ccccc2)CCCC1 [Example 112]			0.54 (≈ 0.859 µM)	1.47 (≈ 2.34 µM)			
His-Lys-Ala-Arg-Val-Leu-Phe (pNO2)-Glu-Ala-Nle-Ser-NH2 [reference compound]							52 ± 16

From patent US5863950A, “HIV protease inhibitors” (Agouron Pharmaceuticals, Inc., priority 1994, dated 1999)
